Assay results published in article PMC11420244, “Evaluation of the effect of modafinil on the pharmacokinetics of encorafenib and binimetinib in patients with BRAF V600-mutant advanced solid tumors” (Cancer Chemotherapy and Pharmacology, 2024).
Read-outs that look alike come from different tables or passages of the source.

Tests used:
[1] = Reported DDI studies of CYP3A substrates with strong, moderate or weak CYP3A inducers; assay type: in vivo
Text: (§1) Another strategy to predict the effect strong induction may have on encorafenib PK, or the PK of other CYP3A substrates, but with fewer assumptions was proposed in a review by Molenaar-Kuijsten et al.. Based on a review of 12 approved oral anticancer drugs primarily metabolized by CYP3A, if no clinical DDI data were available for moderate inducers, an effect of 50% compared to strong inducers could be assumed. After expanding the dataset of Molenaar-Kuijsten to include 3 additional approved oral anti-cancer drugs (fuzuloparib, pirtobrutinib, and fedratinib) metabolized by CYP3A, we applied this approach in the opposite direction (lack of clinical data for the effect of strong CYP3A4 inducers) given available clinical DDI data generated in this study for encorafenib (Table 3). The median ratio of the decrease for a strong inducer to a moderate inducer was 1.56 and ranged from 1.15 for cobimetinib to 2.43 for palbociclib. […] The upper end of this range is consistent with PBPK simulations conducted prior to the study, indicating encorafenib exposures would decrease by ∼ 58% in combination with rifampin (based on a model with some simplifying assumptions) and would also be consistent with the recommendations based on in vitro data to avoid strong inducers in combination with encorafenib. This approach to managing potential coadminsitration of encorafenib with a strong inducer of CYP3A is the most conservative due to lack of more precise extrapolation methods and clincial data.

[2] = cited from earlier work
[3] = cited from earlier work; for Effect of Strong CYP3A Inducer on AUC (decrease): Rifampin
[4] = Phase 1 clinical DDI study: steady-state plasma PK (noncompartmental analysis) with and without modafinil; assay type: in vivo, Human; settings: for Tmax / AUC(0-t) / Cmax / half-life: human; for Tmax / AUC(0-t) / Cmax / half-life / AUClast, Median (range) / Cmax, Median (range) / T1/2, Median (range) / Tmax, Median (range): plasma, patients; for Tmax: read-out: Tmax, Median (range); for MRAUC last (metabolite ratio), Median (range) / MRC max (metabolite ratio), Median (range): metabolite to parent
Description: Encorafenib 450 mg QD and binimetinib 45 mg BID were administered starting on Day 1. Patients then received continuous treatment of 400 mg QD modafinil on Day 15 through Day 21. Blood samples for measurement of plasma concentrations of encorafenib (and its metabolite, LHY746) and binimetinib (and its active metabolite, AR00426032), were collected at 0, 1, 2, 3, 4, 6 and 8 h post dose on Day 14 and Day 21.
Human PK plasma samples were analyzed for quantitation of all PK analytes at PPD (Middleton, Wisconsin, US) using validated, sensitive, and specific HPLC/MS/MS methods in compliance with laboratory SOPs.
PK parameters including, but not limited to, Cmax and AUClast were calculated for each participant using noncompartmental analysis (NCA) methods using the WinNonlin software package (Phoenix WinNonlin Professional, version 8.0 Pharsight Corporation, Mountain View, California) for PK analytes including encorafenib and its metabolite LHY746, and binimetinib and its metabolite AR00426032.
All patients who received at least one dose of any study drug were included in the Safety Set population. The Evaluable PK Set included all patients with sufficient concentration data to calculate at least one PK parameter for encorafenib and binimetinib on Days 14 and 21. Patients who discontinued, missed 3 or more consecutive doses of encorafenib prior to completion of the last PK sampling on Day 14, or required a dose reduction of encorafenib prior to completion of the last PK sampling on Day 14 were excluded from the Evaluable PK set. In addition, patients who missed any dose of study drugs on any of the PK days, or who vomited within 4 h after dosing on any of the PK days were excluded from Evaluable PK set.
An analysis of variance (ANOVA) was performed on the natural log (ln)-transformed Cmax and AUClast of encorafenib, LHY746, binimetinib, and AR00426032. The least squares means (LSM) geometric mean ratio (GMR) and associated 90% confidence interval (CI) for each PK parameter were calculated using the exponentiation of the difference between treatment LSM from the analyses on the ln-transformed parameters and expressed as a percentage of Day 21 relative to Day 14.

[5] = Extrapolation of strong CYP3A inducer effect on encorafenib from the moderate inducer effect (strong/moderate ratio approach); settings: extrapolated from the modafinil effect with strong/moderate ratios 1.15 to 2.43
Text: as §1, with “This approach to managing potential coadminsitration of encorafenib with a strong inducer of CYP3A is the most conservative due to lack of more precise extrapolation methods and clincial data.” left out

[6] = set-up: method as in PMID 28611198; settings: cited from earlier work
CYP2C19 = settings: cited from earlier work
CYP3A4 = test system: CYP3A4; set-up: method as in earlier work; settings: human liver microsomes; cited from earlier work
[7] = set-up: method as in PMID 37837178; settings: cited from earlier work
[8] = cited from earlier work; remark: listed apart in the source
[9] = Day 21 (with modafinil) relative to Day 14 (without)
[10] = Day 14, without modafinil, steady state
[11] = Day 21, with modafinil 400 mg QD
[12] = Day 21, with modafinil 400 mg QD, steady state

SMILES: O=C(c1ccc(F)c(F)c1Nc1ccc(I)cc1F)N1CC(O)([C@@H]2CCCCN2)C1 [Cobimetinib]
- Strong CYP3A Inducer Effect /Moderate CYP3A Inducer Effect ([1]; ratio of AUC decreases): 1.15
- Predicted reduction in AUC with moderate CYP3A inducer ([2]; PBPK modeling): 72%
- Predicted reduction in AUC with strong CYP3A inducer ([2]; PBPK modeling): 83%
- Effect of Moderate CYP3A Inducer on AUC (decrease) ([3]; Efavirenz): ↓ 72%
- Effect of Strong CYP3A Inducer on AUC (decrease) [3]: ↓ 83%
- Reduction in exposure in combination with weak CYP3A inducer vemurafenib ([3]; in vivo): 13%

SMILES: Cc1nnc2n1-c1ccc(Cl)cc1C(c1ccccc1Cl)=NC2 [triazolam]
- Decrease on mean AUCinf with modafinil ([3]; modafinil 200 mg for 7 days followed by 400 mg for 21 days): 59%

SMILES: COC(=O)N[C@@H](C)CNc1nccc(-c2cn(C(C)C)nc2-c2cc(Cl)cc(NS(C)(=O)=O)c2F)n1 [Encorafenib, encorafenib]
- AUClast GMR (geometric mean ratio) [4, 9]: 0.762
- Cmax GMR (geometric mean ratio) [4, 9]: 0.798
- Effect of steady-state modafinil on exposure/PK (in words) ([4]; Day 21 vs Day 14, modafinil 400 mg QD): weak effect
- Tmax ([4]; oral, Day 14, without modafinil, steady state): 1 h
- Tmax ([4]; oral, Day 21, with modafinil 400 mg QD, steady state): 1 h
- AUC(0-t) ([4]; oral, 400 mg, Day 21, with modafinil 400 mg QD, steady state, read-out: AUClast, GM (CV%)): 9.1 µg·h/mL
- AUC(0-t) ([4]; oral, 400 mg, Day 21, with modafinil 400 mg QD, steady state, read-out: AUClast, Median (range)): 10 µg·h/mL
- Cmax ([4]; oral, 400 mg, Day 21, with modafinil 400 mg QD, steady state, read-out: Cmax, Median (range)): 2.75 µg/mL
- half-life ([4]; oral, 400 mg, Day 21, with modafinil 400 mg QD, steady state, read-out: T1/2, GM (CV%) (converted)): 3.57 h
- half-life ([4]; oral, 400 mg, Day 21, with modafinil 400 mg QD, steady state, read-out: T1/2, Median (range) (converted)): 3.8 h
- AUC(0-t) ([4]; oral, Day 14, without modafinil, steady state, read-out: AUClast, GM (CV%)): 11.9 µg·h/mL
- AUC(0-t) ([4]; oral, Day 14, without modafinil, steady state, read-out: AUClast, Median (range)): 11.8 µg·h/mL
- Cmax ([4]; oral, Day 14, without modafinil, steady state, read-out: Cmax, Median (range)): 3.56 µg/mL
- half-life ([4]; oral, Day 14, without modafinil, steady state, read-out: T1/2, GM (CV%) (converted)): 3.48 h
- half-life ([4]; oral, Day 14, without modafinil, steady state, read-out: T1/2, Median (range) (converted)): 3.5 h
- Cmax ([4]; po, Day 14, without modafinil, steady state, encorafenib 450 mg QD + binimetinib 45 mg BID oral, read-out: Cmax, GM (CV%)): 3.54 µg/mL
- Cmax ([4]; po, Day 21, with modafinil 400 mg QD Days 15-21, steady state, encorafenib 450 mg QD + binimetinib 45 mg BID oral, read-out: Cmax, GM (CV%)): 2.83 µg/mL
- Expected reduction in AUC with a strong CYP3A inducer [5]: 28–58%
- Lower exposure at steady-state compared to following a single dose (auto-induction of CYP3A4) [6]: approximately 50%
- Contribution of CYP2C19 to oxidative metabolism (CYP2C19): ~16%
- Simulated decrease of exposures in combination with rifampin ([2]; PBPK simulations conducted prior to the study): ~58%
- Contribution of CYP3A4 to total oxidative clearance (CYP3A4): ~83%
- Increase in exposures on coadministration of moderate CYP3A4 inhibitor diltiazem [7]: 2 fold
- Increase in exposures on coadministration of strong CYP3A inhibitor posaconazole [7]: 3 fold

SMILES: Cc1c(C(=O)Nc2ccc(N3C[C@@H](C)O[C@@H](C)C3)nc2)cccc1-c1ccc(OC(F)(F)F)cc1 [Sonidegib]
- Strong CYP3A Inducer Effect /Moderate CYP3A Inducer Effect ([1]; ratio of AUC decreases): 1.56
- Effect of Moderate CYP3A Inducer on AUC (decrease) ([3]; Efavirenz): ↓ 49%
- Effect of Strong CYP3A Inducer on AUC (decrease) [3]: ↓ 76.6%

SMILES: NC(=O)C[S+]([O-])C(c1ccccc1)c1ccccc1 (stereo not shown) [modafinil]
- Patients with headache (only observed AE above this frequency) [8]: > 15%

SMILES: COc1ccc(F)cc1C(=O)NCc1ccc(-c2nn([C@@H](C)C(F)(F)F)c(N)c2C(N)=O)cc1 [Pirtobrutinib]
- Strong CYP3A Inducer Effect /Moderate CYP3A Inducer Effect ([1]; ratio of AUC decreases): 1.45
- Effect of Moderate CYP3A Inducer on AUC (decrease) ([3]; Efavirenz): ↓ 49%
- Effect of Strong CYP3A Inducer on AUC (decrease) [3]: ↓ 71%

SMILES: Cc1cc(Nc2ncc(Cl)c(Nc3ccccc3S(=O)(=O)C(C)C)n2)c(OC(C)C)cc1C1CCNCC1 [Ceritinib]
- Strong CYP3A Inducer Effect /Moderate CYP3A Inducer Effect ([1]; ratio of AUC decreases): 1.59
- Effect of Moderate CYP3A Inducer on AUC (decrease) ([3]; Efavirenz): ↓ 43%
- Effect of Strong CYP3A Inducer on AUC (decrease) [3]: ↓ 68.5%

SMILES: O=C(c1cc(Cc2n[nH]c(=O)c3ccccc23)ccc1F)N1CCn2nc(C(F)(F)F)nc2C1 [Fuzuloparib]
- Strong CYP3A Inducer Effect /Moderate CYP3A Inducer Effect ([1]; ratio of AUC decreases): 1.45
- Effect of Moderate CYP3A Inducer on AUC (decrease) ([3]; Efavirenz): ↓ 22%
- Effect of Strong CYP3A Inducer on AUC (decrease) [3]: ↓ 32%

SMILES: C=CC(=O)Nc1cc(Nc2nccc(-c3cn(C)c4ccccc34)n2)c(OC)cc1N(C)CCN(C)C [Osimertinib]
- Strong CYP3A Inducer Effect /Moderate CYP3A Inducer Effect ([1]; human, in vivo): 1.87
- Effect of Moderate CYP3A Inducer on AUC (decrease) ([3]; Efavirenz): ↓ 42%
- Effect of Strong CYP3A Inducer on AUC (decrease) [3]: ↓ 78.5%
- Effect of Strong CYP3A Inducer on AUC (decrease) ([3]; listed as osimertinib): 87%

SMILES: CC(=O)c1c(C)c2cnc(Nc3ccc(N4CCNCC4)cn3)nc2n(C2CCCC2)c1=O [Palbociclib]
- Strong CYP3A Inducer Effect /Moderate CYP3A Inducer Effect ([1]; ratio of AUC decreases): 2.43
- Effect of Moderate CYP3A Inducer on AUC (decrease) ([3]; Efavirenz): 38%
- Effect of Moderate CYP3A Inducer on AUC (decrease) ([3]; Modafinil): 32%
- Effect of Strong CYP3A Inducer on AUC (decrease) [3]: ↓ 85.2%
- Effect of Moderate CYP3A Inducer on AUC (decrease), mean ([3]; mean of modafinil and efavirenz): ↓ 35% (mean)

SMILES: O=C(NOCCO)c1cc2[nH]cnc2c(F)c1Nc1ccc(Br)cc1F [AR00426032]
- MRAUC last (metabolite ratio), Median (range) ([4]; Day 14, without modafinil): 0.0482 (0.0182–0.138)
- MRC max (metabolite ratio), Median (range) ([4]; Day 14, without modafinil): 0.0367 (0.0165–0.0926)
- AUClast, Median (range) [4, 10]: 127 (36.1–226) ng*hr/mL
- Cmax, Median (range) [4, 10]: 27.5 (8.23–53.4) ng/mL
- T1/2, Median (range) [4, 10]: 5.44 (2.57–8.86) hr
- Tmax, Median (range) [4, 10]: 2.00 (0.88-3.00) hr
- AUClast GMR (geometric mean ratio) [4, 9]: 0.977
- Cmax GMR (geometric mean ratio) [4, 9]: 0.954
- MRAUClast GMR [4, 9]: 1.02
- MRCmax GMR [4, 9]: 0.950
- MRAUC last (metabolite ratio), Median (range) [4, 11]: 0.0440 (0.0275–0.123)
- MRC max (metabolite ratio), Median (range) [4, 11]: 0.0335 (0.0192–0.0850)
- AUClast, Median (range) [4, 12]: 111 (70.9–197) ng*hr/mL
- Cmax, Median (range) [4, 12]: 23.8 (13.7–40.0) ng/mL
- T1/2, Median (range) [4, 12]: 5.75 (2.88–18.1) hr
- Tmax, Median (range) [4, 12]: 2.00 (0.95–2.23) hr
- Time at which mean plasma concentrations typically reach peak levels, postdose ([4]; Days 14 and 21, steady state): 2 h

SMILES: Cc1cnc(Nc2ccc(OCCN3CCCC3)cc2)nc1Nc1cccc(S(=O)(=O)NC(C)(C)C)c1 [Fedratinib]
- Strong CYP3A Inducer Effect /Moderate CYP3A Inducer Effect ([1]; ratio of AUC decreases): 1.72
- Effect of Moderate CYP3A Inducer on AUC (decrease) ([3]; Efavirenz): ↓ 47%
- Effect of Strong CYP3A Inducer on AUC (decrease) [3]: ↓ 81%

SMILES: O=C1Nc2ccc(Cl)cc2[C@@](C#CC2CC2)(C(F)(F)F)O1 [efavirenz]
- Patients with neuropsychiatric effects [8]: up to 70%

SMILES: O=C(c1cc(Cc2n[nH]c(=O)c3ccccc23)ccc1F)N1CCN(C(=O)C2CC2)CC1 [Olaparib]
- Strong CYP3A Inducer Effect /Moderate CYP3A Inducer Effect ([1]; ratio of AUC decreases): 1.38
- Effect of Moderate CYP3A Inducer on AUC (decrease) ([3]; Efavirenz): ↓ 57.3%
